Reference: a compilation of properties of binary mixtures (doi:10.1016/j.molliq.2017.08.014)

Experiment: xn = mol fraction of the nth substance listed
Conditions: 101 kPa

CCOC(C)=O + CCCCn1cc[n+](C)c1.Cl[Fe-](Cl)(Cl)Cl
x2 = 0
Conditions | viscosity [mPa·s]
293.15 K | 0.46
298.15 K | 0.43
303.15 K | 0.41
308.15 K | 0.39
313.15 K | 0.37
318.15 K | 0.35
323.15 K | 0.33

CCCCn1cc[n+](C)c1.[Cl][Fe-]([Cl])([Cl])[Cl] + CCOC(C)=O
viscosity [mPa·s]
Conditions | x1 = 0.1002 | x1 = 0.1999 | x1 = 0.3007 | x1 = 0.3999 | x1 = 0.5 | x1 = 0.6001 | x1 = 0.7 | x1 = 0.7973 | x1 = 0.9 | x1 = 1
293.15 K | 1.17 | 2.37 | 4.32 | 7.33 | 11.15 | – | 22.98 | 30.8 | 41.3 | 56.6
298.15 K | 1.09 | 2.19 | 3.92 | 6.53 | 9.78 | 14.09 | 19.72 | – | – | 46
303.15 K | 1.02 | 2.01 | 3.56 | 5.84 | 8.64 | – | 16.92 | – | 28.7 | 37.9
308.15 K | 0.97 | – | 3.26 | – | 7.69 | – | 14.65 | – | 24.4 | –
313.15 K | 0.91 | – | 2.99 | 4.76 | 6.88 | 9.63 | 12.81 | – | 21.04 | 27
318.15 K | 0.86 | 1.66 | – | – | 6.19 | 8.65 | 11.32 | 14.58 | – | 23.24
323.15 K | 0.82 | 1.57 | 2.56 | 3.98 | 5.63 | 7.79 | 10.08 | 12.88 | 16.08 | 20.16
